Experiments:
benzodiazepine receptors [1] = assay: Affinity for benzodiazepine receptors: inhibition of specific 3H-flunitrazepam binding (Test 1); conditions: 0.6×10^-9 mol 3H-flunitrazepam; membranes from the rear portion of the rat brain; read-out: Test 1: concentration which inhibited 50% of the specific binding of 3H-labelled flunitrazepam (IC50)
Procedure: The affinity of the active ingredients for the benzodiazepine receptors was measured using a radioactively labelled (^3 H) compound, flunitrazepam, in a modified version of the method of Squires et al (Nature, 1977, Vol. 266, p. 732). The values given in Table 2 below are the concentration (mol×10^-9) of the test compound which inhibited 50% of the specific binding of 0.6×10^-9 mol of ^3 H-labelled flunitrazepam in preparation of membranes from the rear portion of the brain in rats (IC50 values).

benzodiazepine receptors [2] = assay: In vivo binding to benzodiazepine receptors (Test 2); conditions: ip
Procedure: Measurement of in vivo binding to benzodiazepine receptors was carried out according to the method described by Goeders at al., Life Sciences (1985) Vol. 37, p. 345.

SMILES	IC50 (benzodiazepine receptors [1])	Test 2: ED50, in vivo binding to benzodiazepine receptors (benzodiazepine receptors [2])
CN1Cc2c(C3SCCS3)ncn2-c2ccccc2C1=O [Example 2, 5,6-dihydro-3-(1,3-dithiolan-2-yl)-5-methyl-imidazo[1,5-a][1,4]benzodiazepine-6(4H)-one]	94 nM	7.0 mg/kg
CN1Cc2c(C3OCCS3)ncn2-c2cccc(C(F)(F)F)c2C1=O (stereo not drawn) [Example 4, 5,6-dihydro-5-methyl-3-(1,3-oxathiolan-2-yl)-7-trifluoromethyl-imidazo[1,5-a][1,4]benzodiazepine-6(4H)-one]	10 nM	0.08 mg/kg
CN1Cc2c(C3OCCS3)ncn2-c2ccccc2C1=O (stereo not drawn) [Example 5, 5,6-dihydro-5-methyl-3-(1,3-oxathiolan-2-yl)-imidazo[1,5-a][1,4]benzodiazepine-6(4H)-one]	339 nM	0.8 mg/kg
CN1Cc2c(C3OCCO3)ncn2-c2cccc(C(F)(F)F)c2C1=O [Example 3, 5,6-dihydro-3-(1,3-dioxolan-2-yl)-5-methyl-7-trifluoromethyl-imidazo[1,5-a][1,4]benzodiazepine-6(4H)-one]	73 nM	0.09 mg/kg
CN1Cc2c(C3OCCS3)ncn2-c2cccc(F)c2C1=O (stereo not drawn) [Example 6, 5,6-dihydro-7-fluoro-5-methyl-3-(1,3-oxathiolan-2-yl)-imidazo[1,5-a][1,4]benzodiazepine-6(4H)-one]	36 nM	0.22 mg/kg
CN1Cc2c(C3OCCO3)ncn2-c2ccccc2C1=O [Example 1, 5,6-dihydro-3-(1,3-dioxolan-2-yl)-5-methyl-imidazo[1,5-a][1,4]benzodiazepine-6(4H)-one]	1080 nM	1.0 mg/kg

Source: patent US5017574A, “Novel imidazobenzodiazepines” (Roussel Uclaf, priority 1989, dated 1991)
